Measurements published in PubChem BioAssay (NCI).
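48-hour exposure; five concentrations; linearly interpolated endpoints. At the TGI there is no net growth.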

Tests used:
Assay in all cases: DTP human tumour cell line panel, 48 h
RXF 393 renal = tested on: RXF 393 renal
MOLT-4 leukemia = tested on: MOLT-4 leukemia
SNB-75 CNS = tested on: SNB-75 CNS
MCF7 breast = tested on: MCF7 breast
MDA-MB-231 breast = tested on: MDA-MB-231 breast
IGROV1 ovarian = tested on: IGROV1 ovarian
BT-549 breast = tested on: BT-549 breast
K-562 leukemia = tested on: K-562 leukemia
786-0 renal = tested on: 786-0 renal
CCRF-CEM leukemia = tested on: CCRF-CEM leukemia
SK-MEL-2 melanoma = tested on: SK-MEL-2 melanoma
UO-31 renal = tested on: UO-31 renal
SW-620 colon = tested on: SW-620 colon
ACHN renal = tested on: ACHN renal
NCI-H460 lung = tested on: NCI-H460 lung
HL-60(TB) leukemia = tested on: HL-60(TB) leukemia
OVCAR-8 ovarian = tested on: OVCAR-8 ovarian
SF-268 CNS = tested on: SF-268 CNS
LOX IMVI melanoma = tested on: LOX IMVI melanoma
NCI-H522 lung = tested on: NCI-H522 lung
HCC-2998 colon = tested on: HCC-2998 colon
A549 NSCLC = tested on: A549 NSCLC
OVCAR-5 ovarian = tested on: OVCAR-5 ovarian
SNB-19 CNS = tested on: SNB-19 CNS
MDA-N = tested on: MDA-N
U251 CNS = tested on: U251 CNS
PC-3 prostate = tested on: PC-3 prostate
HT29 colon = tested on: HT29 colon
SK-OV-3 ovarian = tested on: SK-OV-3 ovarian
HOP-62 NSCLC = tested on: HOP-62 NSCLC
HS 578T breast = tested on: HS 578T breast
T-47D breast = tested on: T-47D breast
A498 renal = tested on: A498 renal
SK-MEL-5 melanoma = tested on: SK-MEL-5 melanoma
HOP-92 NSCLC = tested on: HOP-92 NSCLC
CAKI-1 renal = tested on: CAKI-1 renal
M14 melanoma = tested on: M14 melanoma
MALME-3M melanoma = tested on: MALME-3M melanoma
SF-539 CNS = tested on: SF-539 CNS
NCI-H23 lung = tested on: NCI-H23 lung
NCI/ADR-RES ovarian = tested on: NCI/ADR-RES ovarian
KM12 colon = tested on: KM12 colon
NCI-H226 lung = tested on: NCI-H226 lung
OVCAR-3 ovarian = tested on: OVCAR-3 ovarian
UACC-62 melanoma = tested on: UACC-62 melanoma
SF-295 CNS = tested on: SF-295 CNS
EKVX NSCLC = tested on: EKVX NSCLC
MDA-MB-435 = tested on: MDA-MB-435
SN12C renal = tested on: SN12C renal
HCT-116 colon = tested on: HCT-116 colon
OVCAR-4 ovarian = tested on: OVCAR-4 ovarian
SK-MEL-28 melanoma = tested on: SK-MEL-28 melanoma
UACC-257 melanoma = tested on: UACC-257 melanoma
TK-10 renal = tested on: TK-10 renal
RPMI-8226 leukemia = tested on: RPMI-8226 leukemia
HCT-15 colon = tested on: HCT-15 colon
COLO 205 colon = tested on: COLO 205 colon
SR leukemia = tested on: SR leukemia
DU-145 prostate = tested on: DU-145 prostate

Measured: TGI

COc1cccc(OC)c1NC(=O)C(=O)Nn1c(NNC(=O)c2ccncc2)nc2ccccc2c1=O
not listed: COLO 205 colon | SR leukemia | DU-145 prostate
> 100 µM: all other assays above

CC(NNC(=O)c1ccncc1)c1cccc(C(F)(F)F)c1 (configuration not stated)
not listed: BT-549 breast | SNB-19 CNS | OVCAR-3 ovarian
> 100 µM: all other assays above
